Tests used:
[1] = system: myrosinase; test: Equimolar conversion of glucoraphanin to sulforaphane, ascorbic acid modulating myrosinase activity (Example 4); assay type: biochemical; conditions: Part 2; 250 mg broccoli seed extract
Experimental: A two-part experiment was conducted to further elucidate the role of ascorbic acid in modulating myrosinase activity. […] A control sample contained no ascorbic acid, and the enzymatic conversion proceeded unassisted by a co-factor. PART 1. […] PART 2. While keeping the amount of broccoli seed extract fixed at 250 mg, the concentration of ascorbic acid was varied from 0.4 mmol/Liter to 3.8 mmol/Liter.

[2] = system: myrosinase; test: Conversion of glucoraphanin to sulforaphane in Simulated Intestinal Fluid (Example 5); assay type: biochemical, broccoli; conditions: 38° C., 0.25 to 1.00 mmol/Liter ascorbic acid, FIG. 4
Experimental: Simulated Intestinal Fluid (SIF) powder, a commercially supplied concentrate closely approximating the human intestinal content in terms of composition, pH and ionic strength, was used. The experiment utilized a USP Dissolution Apparatus 2 (paddles), where into six dissolution vessels 500 mL of Simulated Intestinal Fluid was dispensed, along with 150 mg of freeze-dried broccoli sprout powder as a source of myrosinase. […] Aliquots were withdrawn every 15 minutes, and assayed for sulforaphane.

[3] = system: broccoli sprout-derived myrosinase; test: Consumption of glucoraphanin by myrosinase as a function of ascorbic acid concentration (Example 3); assay type: biochemical; conditions: for glucoraphanin (GR) content of reaction mixture: 38° C.
Experimental: About 250 mg of broccoli seed extract containing about 12% (w/w) glucoraphanin were subjected to hydrolysis by a fixed concentration of broccoli sprout-derived myrosinase in the presence of variable concentration of ascorbic acid, ranging from 0 to 600 μmoles/Liter. The reaction mixtures were thermostated at 38° C.; aliquots were withdrawn every 15 minutes for 60 minutes, and concentration of glucoraphanin determined chromatographically. The rate of glucoraphanin consumption was interpreted as the rate its conversion to sulforaphane. Graphical representation of glucoraphanin content reduction as a function of increasing ascorbic acid concentration results in a series of linear plots; the slopes of the linear regression lines reflect the rate of glucoraphanin consumption, in pmoles/minute. It is apparent that in the presence of 600 μmoles/Liter concentration of ascorbic acid, the reaction rate increased 13-fold relative to that which proceeded in the absence of modulatory effects of ascorbic acid.

[4] = system: matrix metalloproteinase-9 (MMP-9) gene expression; test: MMP-9 gene expression in PC3 cells by quantitative RT-PCR (Example 6); assay type: cell-based; conditions: PC3, 24 hours
Experimental: The following study was conducted to determine the effect of the combination of sulforaphane and ursolic acid on matrix metalloproteinase-9 (MMP-9) gene expression. The MMP-9 gene encodes the protein that is known to degrade the extracellular matrix, which is the support system of cells. In prostate, colon, brain, and other cancers, MMP9 expression is increased, and this increase has been correlated with metastasis. A decrease in MMP-9 is favorable for these cancers.
In the study, the prostate cancer cell line PC3 was treated with DMSO (vehicle control), sulforaphane (SFN), ursolic acid (UA), or the combination of sulforaphane and ursolic acid, for 24 hours. Gene expression of MMP-9 was analyzed via quantitative RT-PCR. FIGS. 5a and 5b and FIG. C show the results of the study.
Two separate treatments were conducted. […] The following reductions in gene expression of MMP-9 were observed: (i) a 5% decrease with 1 μM SFN alone, (ii) a 31% decrease with 5 μg/mL UA alone, and (iii) a 40% decrease with the combination of 1 μM SFN and 5 μg/mL UA. […] The following reductions in gene expression of MMP-9 were observed: (i) a 13% decrease with 1 μM SFN alone, (ii) a 28% decrease with 5 μg/mL UA alone, and (iii) a 45% decrease with the combination of 1 μM SFN and 5 μg/mL UA.
The following reductions in gene expression of MMP-9 were observed: (i) a 39% decrease with 5 μM SFN alone, (ii) a 15% decrease with 10 μg/mL UA alone, and (iii) a 59% decrease with the combination of 5 μM SFN and 10 μg/mL UA.

[5] = system: heme oxygenase-1 (HO-1); conditions: oral administration; mammary epithelium; cited from earlier work
[6] = system: NAD(P)H:quinine oxidoreductase (NQO1); conditions: oral administration; mammary epithelium; cited from earlier work

In the case of `O=C1O[C@H]([C@@H](O)CO)C(O)=C1O` [Ascorbic Acid, ascorbic acid], the “ascorbic acid concentration up to which myrosinase-promoted conversion increases apparently linearly, then levels off” value [1] is reported as “about 2 mmol/L”, the “sulforaphane yield versus ascorbic acid concentration” value [2] is reported as “direct correlation between larger yield of sulforaphane and higher concentrations of ascorbic acid” and the “Slope of linear regression (rate of glucoraphanin consumption)” value (“Slope of linear regression” below) ([3]; 50 μM ascorbic acid) is reported as -0.286 µmol/min. The “glucoraphanin (GR) content of reaction mixture” value (shortened to “glucoraphanin (GR) content”) ([3]; 50 μM ascorbic acid, 0 min) was 93.36 µmol, the “glucoraphanin (GR) content” value ([3]; 50 μM ascorbic acid, 15 min) was 89.20 µmol and the “glucoraphanin (GR) content” value ([3]; 50 μM ascorbic acid, 30 min) was 84.24 µmol. For the same compound, the “glucoraphanin (GR) content” value ([3]; 50 μM ascorbic acid, 45 min) was 80.30 µmol, the “glucoraphanin (GR) content” value ([3]; 50 μM ascorbic acid, 60 min) was 76.36 µmol and the “Slope of linear regression” value ([3]; 125 μM ascorbic acid) was -0.5622 µmol/min. The “glucoraphanin (GR) content” value ([3]; 125 μM ascorbic acid, 0 min) was 93.36 µmol, the “glucoraphanin (GR) content” value ([3]; 125 μM ascorbic acid, 15 min) was 84.52 µmol and the “glucoraphanin (GR) content” value ([3]; 125 μM ascorbic acid, 30 min) was 75.92 µmol. The “glucoraphanin (GR) content” value ([3]; 125 μM ascorbic acid, 45 min) was 68.09 µmol, the “glucoraphanin (GR) content” value ([3]; 125 μM ascorbic acid, 60 min) was 59.41 µmol and the “Slope of linear regression” value ([3]; 250 μM Filtered ascorbic acid) was -0.4714 µmol/min. The “glucoraphanin (GR) content” value ([3]; 250 μM Filtered ascorbic acid, 0 min) was 93.36 µmol, the “glucoraphanin (GR) content” value ([3]; 250 μM Filtered ascorbic acid, 15 min) was 86.31 µmol and the “glucoraphanin (GR) content” value ([3]; 250 μM Filtered ascorbic acid, 30 min) was 79.44 µmol. For the same compound, the “glucoraphanin (GR) content” value ([3]; 250 μM Filtered ascorbic acid, 45 min) was 71.94 µmol, the “glucoraphanin (GR) content” value ([3]; 250 μM Filtered ascorbic acid, 60 min) was 65.18 µmol and the “Slope of linear regression” value ([3]; 250 μM ascorbic acid) was -0.7901 µmol/min. For the same compound, the “glucoraphanin (GR) content” value ([3]; 250 μM ascorbic acid, 0 min) was 93.36 µmol, the “glucoraphanin (GR) content” value ([3]; 250 μM ascorbic acid, 15 min) was 80.95 µmol and the “glucoraphanin (GR) content” value ([3]; 250 μM ascorbic acid, 30 min) was 69.06 µmol. The “glucoraphanin (GR) content” value ([3]; 250 μM ascorbic acid, 45 min) was 57.63 µmol, the “glucoraphanin (GR) content” value ([3]; 250 μM ascorbic acid, 60 min) was 45.76 µmol and the “Slope of linear regression” value ([3]; 400 μM ascorbic acid) was -1.007 µmol/min. For the same compound, the “glucoraphanin (GR) content” value ([3]; 400 μM ascorbic acid, 0 min) was 93.36 µmol, the “glucoraphanin (GR) content” value ([3]; 400 μM ascorbic acid, 15 min) was 78.32 µmol and the “glucoraphanin (GR) content” value ([3]; 400 μM ascorbic acid, 30 min) was 62.78 µmol. The “glucoraphanin (GR) content” value ([3]; 400 μM ascorbic acid, 45 min) was 47.67 µmol, the “glucoraphanin (GR) content” value ([3]; 400 μM ascorbic acid, 60 min) was 33.15 µmol and the “Slope of linear regression” value ([3]; 600 μM ascorbic acid) was -1.2 µmol/min. The “glucoraphanin (GR) content” value ([3]; 600 μM ascorbic acid, 0 min) was 93.36 µmol, the “glucoraphanin (GR) content” value ([3]; 600 μM ascorbic acid, 15 min) was 75.02 µmol and the “glucoraphanin (GR) content” value ([3]; 600 μM ascorbic acid, 30 min) was 55.66 µmol. For the same compound, the “glucoraphanin (GR) content” value ([3]; 600 μM ascorbic acid, 45 min) was 37.50 µmol, the “glucoraphanin (GR) content” value ([3]; 600 μM ascorbic acid, 60 min) was 22.09 µmol and the “increase of reaction rate relative to absence of ascorbic acid” value ([3]; 600 μmoles/Liter ascorbic acid) was 13 fold.
With `C[S+]([O-])CCCCN=C=S` (centres unmarked) [SFN, 1-isothiocyanato-4-methylsulfinylbutane] the “decrease in gene expression of MMP-9” value ([4]; 1 μM SFN alone, Part 1 first treatment (FIG. 5a)) was 5%, the “decrease in gene expression of MMP-9” value ([4]; 1 μM SFN alone, Part 1 second treatment (FIG. 5b)) was 13% and the “decrease in gene expression of MMP-9” value ([4]; 5 μM SFN alone, Part 2 (FIG. 6)) was 39%. The “elevated immunostaining of HO-1 enzyme” value [5] was 4 fold and the “increase in NQO1 enzymatic activity” value [6] was 3 fold.
In the case of `C[C@H]1[C@H](C)CC[C@]2(C(=O)O)CC[C@]3(C)C(=CC[C@@H]4[C@@]5(C)CC[C@H](O)C(C)(C)[C@@H]5CC[C@]43C)[C@H]12` [UA, (1S,2R,4aS,6aR,6aS,6bR,8aR,10S,12aR,14bS)-10-hydroxy-1,2,6a,6b,9,9,12a-heptamethyl-2,3,4,5,6,6a,7,8,8a,10,11,12,13,14b-tetradecahydro-1H-picene-4a-carboxylic acid], the “decrease in gene expression of MMP-9” value ([4]; 5 μg/mL UA alone, Part 1 first treatment (FIG. 5a)) is reported as 31%, the “decrease in gene expression of MMP-9” value ([4]; 5 μg/mL UA alone, Part 1 second treatment (FIG. 5b)) is reported as 28% and the “decrease in gene expression of MMP-9” value ([4]; 10 μg/mL UA alone, Part 2 (FIG. 6)) is reported as 15%.

From patent US20150118305A1, “COMPOSITIONS COMPRISING SULFORAPHANE OR A SULFORAPHANE PRECURSOR AND URSOLIC ACID” (Nutramax Laboratories, Inc., priority 2012, published 2015)
